Measurements published in patent publication US9999222B2, “Herbicidal combination comprising azines” (BASF SE, priority 2014, dated 2018).
Values joined by “and” are separate entries in the source; they are usually repeats but may differ in a detail not shown here. Equal values may be shown once. Read-outs that look alike come from different tables or passages of the source.

How the values were obtained:
Assay in all cases: Greenhouse test, pre-emergence treatment
ABUTH = format: in vivo, Abutilon theophrasti; details: Abutilon theophrasti, 480 h, 20 DAT, read-out: observed % activity
Outline: (§1)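 Seeds were sown in loamy sand with about 3.0% humus, and compounds in water were sprayed immediately after sowing, alone or as combinations formulated as 10% emulsion concentrates. Plants grew under hoods until rooted, at 10-25 °C or 20-35 °C by species, for 2 to 4 weeks. Damage was scored 0-100 (100 = no emergence or complete destruction), and Colby expected values were E=X+Y−(X·Y/100).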

ALOMY = format: in vivo, Alopecurus myosuroides; details: Alopecurus myosuroides, pre-emergence, read-out: observed % activity; for inhibition at 8 g/ha: 8 g ai/ha; for inhibition at 16 g/ha: 16 g ai/ha
Outline: as §1

POLCO = format: in vivo, Polygonum convolvulus
Outline: as §1

AVEFA = format: in vivo, Avena fatua; details: for observed % activity: 20 DAT
Outline: as §1

BRADC = format: in vivo, Brachiaria decumbens; details: Urochloa decumbens, pre-emergence, read-out: observed % activity; for inhibition at 16 g/ha: 16 g ai/ha
Text: (§2) The culture containers used were plastic flowerpots containing loamy sand with approximately 3.0% of humus as the substrate. The seeds of the test plants were sown separately for each species.
(§3) For the pre-emergence treatment, the active ingredients, which had been suspended or emulsified in water, were applied directly after sowing by means of finely distributing nozzles. The containers were irrigated gently to promote germination and growth and subsequently covered with transparent plastic hoods until the plants had rooted. This cover caused uniform germination of the test plants, unless this had been impaired by the active ingredients.
(§4) Depending on the species, the plants were kept at 10-25° C. or 20-35° C., respectively.
(§5) The test period extended over 2 to 4 weeks. During this time, the plants were tended, and their response to the individual treatments was evaluated.
(§6) Evaluation was carried out using a scale from 0 to 100. 100 means no emergence of the plants, or complete destruction of at least the aerial moieties, and 0 means no damage, or normal course of growth. A moderate herbicidal activity is given at values of at least 60, a good herbicidal activity is given at values of at least 70, and a very good herbicidal activity is given at values of at least 85.
(§7) The respective stated components a and b, and if appropriate, c were formulated as a 10% by weight strength emulsion concentrate and, with addition of the amount of solvent system, introduced into the spray liquor used for applying the active compound.
(§8) In the examples, the solvent used was water.
(§9) In the examples below, using the method of S. R. Colby (1967) “Calculating synergistic and antagonistic responses of herbicide combinations”, Weeds 15, p. 22ff., the value E, which is expected if the activity of the individual active compounds is only additive, was calculated. E=X+Y−(X·Y/100) where • X=percent activity using active compound a at an application rate A; • Y=percent activity using active compound b at an application rate B; • E=expected activity (in %) by a+b at application rates A+B.
(§10) If the value found experimentally is higher than the value E calculated according to Colby, a synergistic effect is present.

COMBE = format: in vivo, Commelina benghalensis; details: 20 DAT
Outline: as §1

EPHHL = format: in vivo, Euphorbia heterophylla; details: 20 DAT
Outline: as §1

GALAP = format: in vivo, Galium aparine
Outline: as §1

GERPU = format: in vivo, Geranium pusillum; details: 20 DAT
Outline: as §1

KCHSC = format: in vivo, Kochia scoparia; details: 20 DAT
Outline: as §1

LOLMU = format: in vivo, Lolium multiflorum; details: Lolium multiflorum, pre-emergence, read-out: observed % activity; for inhibition at 8 g/ha: 8 g ai/ha; for inhibition at 16 g/ha: 16 g ai/ha
Outline: as §1

PHACA = format: in vivo, Phalaris canariensis; details: for inhibition at 8 g/ha / inhibition at 16 g/ha: Phalaris canariensis, pre-emergence, read-out: observed % activity; for inhibition at 8 g/ha: 8 g ai/ha
Outline: as §1

SORHA = format: in vivo, Sorghum halepense; details: Sorghum halepense, pre-emergence, read-out: observed % activity; for inhibition at 8 g/ha: 8 g ai/ha; for inhibition at 16 g/ha: 16 g ai/ha
Text: as §2, §3, §4, §5, §6, §7, §8, §9, §10

SMILES: CC1(c2nc(N)nc(Nc3c(F)c(F)cc(F)c3F)n2)CCC1 [compound 8, 6-(1-methylcyclobutyl)-N4-(2,3,5,6-tetrafluorophenyl)-1,3,5-triazine-2,4-diamine]
- inhibition at 8 g/ha (ABUTH; 8 g ai/ha): 80%
- inhibition at 16 g/ha (ABUTH; 16 g ai/ha): 70%
- inhibition at 8 g/ha (ALOMY; 192 h, 8 DAT): 50%
- inhibition at 16 g/ha (ALOMY; 192 h, 8 DAT): 90%
- inhibition at 8 g/ha (ALOMY; 480 h, 20 DAT): 55%
- inhibition at 16 g/ha (ALOMY; 480 h, 20 DAT): 90%
- observed % activity (POLCO; 8 g ai/ha, 20 DAT): 0%
- observed % activity (POLCO; 16 g ai/ha, 20 DAT): 70%
- inhibition at 8 g/ha (POLCO; Fallopia convolvulus, pre-emergence, 192 h, 8 g ai/ha, 8 DAT, read-out: observed % activity): 65%
- inhibition at 16 g/ha (POLCO; Fallopia convolvulus, pre-emergence, 480 h, 16 g ai/ha, 20 DAT, read-out: observed % activity): 80%
- observed % activity (AVEFA; 8 g ai/ha): 5% and 10%
- observed % activity (AVEFA; 16 g ai/ha): 10%
- inhibition at 8 g/ha (AVEFA; Avena fatua, pre-emergence, 192 h, 8 g ai/ha, 8 DAT, read-out: observed % activity): 0%
- inhibition at 16 g/ha (AVEFA; Avena fatua, pre-emergence, 192 h, 16 g ai/ha, 8 DAT, read-out: observed % activity): 0%
- inhibition at 16 g/ha (BRADC; 192 h, 8 DAT): 60%
- inhibition at 8 g/ha (BRADC; 480 h, 8 g ai/ha, 20 DAT): 78%
- inhibition at 16 g/ha (BRADC; 480 h, 20 DAT): 70%
- observed % activity (COMBE; 8 g ai/ha): 50%
- observed % activity (COMBE; 16 g ai/ha): 80%
- inhibition at 8 g/ha (COMBE; Commelina benghalensis, pre-emergence, 480 h, 8 g ai/ha, read-out: observed % activity): 60%
- inhibition at 16 g/ha (COMBE; Commelina benghalensis, pre-emergence, 480 h, 16 g ai/ha, read-out: observed % activity): 65%
- observed % activity (EPHHL; 16 g ai/ha): 65%
- inhibition at 8 g/ha (EPHHL; Euphorbia heterophylla, pre-emergence, 480 h, 8 g ai/ha, read-out: observed % activity): 45%
- inhibition at 16 g/ha (EPHHL; Euphorbia heterophylla, pre-emergence, 480 h, 16 g ai/ha, read-out: observed % activity): 70%
- observed % activity (GALAP; 8 g ai/ha, 20 DAT): 20%
- inhibition at 16 g/ha (GALAP; Galium aparine, pre-emergence, 192 h, 16 g ai/ha, 8 DAT, read-out: observed % activity): 0%
- observed % activity (GERPU; 8 g ai/ha): 20%
- observed % activity (GERPU; 16 g ai/ha): 80%
- inhibition at 16 g/ha (GERPU; Geranium pusillum, pre-emergence, 480 h, 16 g ai/ha, read-out: observed % activity): 60%
- observed % activity (KCHSC; 8 g ai/ha): 70% and 80%
- observed % activity (KCHSC; 16 g ai/ha): 80%
- inhibition at 8 g/ha (KCHSC; Bassia scoparia, pre-emergence, 480 h, 8 g ai/ha, read-out: observed % activity): 90%
- inhibition at 16 g/ha (KCHSC; Bassia scoparia, pre-emergence, 480 h, 16 g ai/ha, read-out: observed % activity): 85%
- inhibition at 8 g/ha (LOLMU; 192 h, 8 DAT): 30%
- inhibition at 16 g/ha (LOLMU; 192 h, 8 DAT): 40%
- inhibition at 8 g/ha (LOLMU; 480 h, 20 DAT): 30%
- inhibition at 16 g/ha (LOLMU; 480 h, 20 DAT): 40%
- observed % activity (PHACA; 16 g ai/ha, 20 DAT): 60%
- inhibition at 8 g/ha (PHACA; 192 h, 8 DAT): 25%
- inhibition at 16 g/ha (PHACA; 192 h, 16 g ai/ha, 8 DAT): 40%
- inhibition at 8 g/ha (PHACA; 480 h, 20 DAT): 28%
- inhibition at 16 g/ha (PHACA; 480 h, 16 g ai/ha, 20 DAT): 50%
- inhibition at 8 g/ha (SORHA; 192 h, 8 DAT): 90%
- inhibition at 16 g/ha (SORHA; 192 h, 8 DAT): 90%
- inhibition at 8 g/ha (SORHA; 480 h, 20 DAT): 90%
- inhibition at 16 g/ha (SORHA; 480 h, 20 DAT): 90%
